Read-outs that look alike come from different tables or passages of the source.
What was measured:
[1] = test system: EML4-ALK-BAF3 cell line xenograft; type: in vivo; settings: Table C, 40 mg/kg oral gavage once daily
Source text: A representative protocol for the in vivo experiment is as followed to establish the subcutaneous EML4-ALK-BAF3 cell line xenograft model in nude mice and to evaluate the in vivo therapeutic efficacy of the compounds: Animals: Male Balb/c nude mice (6˜8 weeks old) were obtained from SLAC Laboratory Animal, Shanghai, China. Animals were maintained under SPF conditions in sterile filter top cages and housed on HEPA-filtered ventilated racks. Animals received sterile rodent chow and water ad libitum. Cell line: BAF3-EML4-ALK stable cell line, the BAF3 cell which could expressed fusion oncogene EML4-ALK. S.c. Xenograft Models in Athymic Mice: Cells for implantation into athymic mice were harvested and pelleted by centrifugation at 1200 r/min for 5 min. Cells were washed once and resuspended in sterile PBS buffer with 5×10^6 in 200 μl. Then cells were implanted s.c. into the right scapular region of each mouse and allowed to grow to 200˜300 mm^3 before the administration of compound. Preparation of the Dose Formulation: each compound was suspensioned in 0.5% CMC-Na. Randomization: When tumor volumes approach 200˜300 mm^3, the mice will be randomized into 5 groups according to the tumor volume. The day will be denoted as D1 and the treatments will be started at this day. Administered: Dose will be administered with oral gavage needle once daily for number of days. Treatment of compounds administered in 0.5% CMC-Na by p.o. gavage was initiated when tumors were 200˜300 mm^3 in volume. Observations: After inoculation, the animals will be checked daily for morbidity and mortality. At the time of routine monitoring, the animals will be checked for any effects of tumor growth and treatments on normal behavior such as mobility, body weight gain/loss (body weights will be measured twice weekly or every other day), eye/hair matting and any other abnormal effect. Death and observed clinical signs will be recorded on the basis of the numbers of animals within each subset. Tumor Size Measurements: Tumor volume was determined by measurement with electronic vernier calipers every 3 days and tumor volume was calculated as the product of its length×width^2×0.5. Effect studies: Tumor volume was expressed on indicated days as the mean tumor volume ±SD. […] Significant differences between the treated versus the control groups (p<0.05) were determined using t test. At study endpoint, after blood collection, mice were practiced euthanasia by cervical dislocation, the tumor tissue was collected first, then abdominal cavity was cut open, liver and spleen were excised, then weight after the gallblader was removed respectively. Organ weight and Organ/body weight ratios between the treated versus the control groups were compared. Ratios was calculated as follows: Ratios=Organ weight/(body weight-tumor weight). Both organ weight and Organ/body weight ratios were also expressed as mean±SD, and significant differences between the treated versus the control groups (p<0.05) were determined using t test.

[2] = PK (pharmacokinetic) study in rat, cassette dosing; type: in vivo; settings: male, Wistar, plasma
Description: A representative protocol for the PK (pharmacokinetic) is as followed: Animals used were Wistar rat, male and weight about 300-359 grams. Compound 21 and 22 were given either IV or oral to the same animals by cassette dosing. The dose for each compound is 1 mg/kg (volume 5 ml/kg) IV and 2 mg/kg (volume 10 ml/kg) oral. The formulation for IV was in PBS, the pH is adjusted by dilute HCl until compounds were totally dissolved. 0.5% Na-CMC suspension was used for the oral formulation. Sample collection: for IV route, plasma sample were collected at the time point 0.083, 0.25, 0.5, 1, 1.5, 2, 4, 6, 8, 12, 24 h. For oral route, plasma sample were collected at the time point 0.167, 0.33, 0.5, 1, 2, 4, 6, 8, 12, 24 h. Analysis: LC-MS/MS is used to calculate PK parameters: t1/2, tmax, Cmax, Vss and AUC etc.

[2H]C([2H])([2H])C([2H])([2H])N1CCC(n2cc(-c3cnc(N)c(O[C@H](C)c4c(Cl)ccc(F)c4Cl)c3)cn2)CC1 [Compound 22, (R)-3-(1-(2,6-dichloro-3-fluorophenyl)ethoxy)-5-(1-(1-d5-ethylpiperidin-4-yl)-1H-pyrazol-4-yl)pyridin-2-amine]
Tumor growth inhibition (TGI, %) ([1]; day 2): 22.58% | Tumor growth inhibition (TGI, %) ([1]; day 5): 53.72% | Tumor growth inhibition (TGI, %) ([1]; day 8): 66.61% | Tumor growth inhibition (TGI, %) ([1]; day 11): 82.97% | Tumor growth inhibition (TGI, %) ([1]; day 14): 87.64% | AUC(0-inf) ([2]; IV cassette 1 mg/kg): 337 ng·h/mL | AUC(0-t) ([2]; IV cassette 1 mg/kg): 336 ng·h/mL | Cmax ([2]; IV cassette 1 mg/kg): 259 ng/mL | MRT ([2]; IV cassette 1 mg/kg): 3.11 h | Tmax ([2]; IV cassette 1 mg/kg): 0.083 h | clearance ([2]; IV cassette 1 mg/kg): 49.5 mL/min/kg | half-life ([2]; IV cassette 1 mg/kg): 3.04 h | AUC(0-inf) ([2]; oral cassette 2 mg/kg): 146 ng·h/mL | AUC(0-t) ([2]; oral cassette 2 mg/kg): 140 ng·h/mL | Cmax ([2]; oral cassette 2 mg/kg): 21 ng/mL | MRT ([2]; oral cassette 2 mg/kg): 5.28 h | Tmax ([2]; oral cassette 2 mg/kg): 4 h | half-life ([2]; oral cassette 2 mg/kg): 3.1 h | bioavailability ([2]; oral cassette 2 mg/kg vs IV 1 mg/kg, read-out: F (bioavailability)): 20.8%

From patent US20140350050A1, “PYRIDINE COMPOUNDS AS INHIBITORS OF KINASE” (TELIGENE LTD., priority 2011, published 2014)
